Laboratory results: PubChem BioAssay (NCI)
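Interpolation was linear, between the two tested concentrations surrounding the appropriate level; five concentrations were tested over 48 hours in 96-well plates. TGI: total growth inhibition.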

Assays:
Assay in all cases: growth of human tumour cells (NCI), 48 h
UACC-62 melanoma = system: UACC-62 melanoma
A549 NSCLC = system: A549 NSCLC
SF-295 CNS = system: SF-295 CNS
SK-MEL-2 melanoma = system: SK-MEL-2 melanoma
HOP-92 NSCLC = system: HOP-92 NSCLC
NCI-H460 lung = system: NCI-H460 lung
OVCAR-3 ovarian = system: OVCAR-3 ovarian
NCI-H23 lung = system: NCI-H23 lung
COLO 205 colon = system: COLO 205 colon
SN12C renal = system: SN12C renal
SF-539 CNS = system: SF-539 CNS
OVCAR-8 ovarian = system: OVCAR-8 ovarian
SW-620 colon = system: SW-620 colon
SK-OV-3 ovarian = system: SK-OV-3 ovarian
K-562 leukemia = system: K-562 leukemia
NCI/ADR-RES ovarian = system: NCI/ADR-RES ovarian
SNB-19 CNS = system: SNB-19 CNS
HS 578T breast = system: HS 578T breast
HL-60(TB) leukemia = system: HL-60(TB) leukemia
OVCAR-5 ovarian = system: OVCAR-5 ovarian
UACC-257 melanoma = system: UACC-257 melanoma
HCT-15 colon = system: HCT-15 colon
LOX IMVI melanoma = system: LOX IMVI melanoma
SK-MEL-28 melanoma = system: SK-MEL-28 melanoma
MDA-N = system: MDA-N
786-0 renal = system: 786-0 renal
SF-268 CNS = system: SF-268 CNS
HOP-62 NSCLC = system: HOP-62 NSCLC
U251 CNS = system: U251 CNS
BT-549 breast = system: BT-549 breast
HCT-116 colon = system: HCT-116 colon
SNB-75 CNS = system: SNB-75 CNS
KM12 colon = system: KM12 colon
A498 renal = system: A498 renal
UO-31 renal = system: UO-31 renal
RPMI-8226 leukemia = system: RPMI-8226 leukemia
MDA-MB-231 breast = system: MDA-MB-231 breast
EKVX NSCLC = system: EKVX NSCLC
IGROV1 ovarian = system: IGROV1 ovarian
HT29 colon = system: HT29 colon
TK-10 renal = system: TK-10 renal
SR leukemia = system: SR leukemia
DU-145 prostate = system: DU-145 prostate
CCRF-CEM leukemia = system: CCRF-CEM leukemia
CAKI-1 renal = system: CAKI-1 renal
T-47D breast = system: T-47D breast
SK-MEL-5 melanoma = system: SK-MEL-5 melanoma
MDA-MB-435 = system: MDA-MB-435
MOLT-4 leukemia = system: MOLT-4 leukemia
MCF7 breast = system: MCF7 breast
ACHN renal = system: ACHN renal
PC-3 prostate = system: PC-3 prostate
M14 melanoma = system: M14 melanoma
NCI-H226 lung = system: NCI-H226 lung

Measured: TGI

CC(=O)OC1COC(Nn2c(=O)[nH]c3ccccc3c2=O)C(OC(C)=O)C1OC(C)=O (centres undefined)
> 100 µM: all assays above
